Results on 96 compounds are retold here after US20160089464A1, “MALODOR REDUCTION COMPOSITIONS” (The Procter & Gamble Company, priority 2014, published 2016).

Entries after “also recorded” stand apart in the source; their conditions may differ.

The first data set in a line: Comment Code material properties: vapor pressure, ClogP, probability of ingredient color instability, odor detection threshold, melamine formaldehyde PMC headspace response ratio and leakage, liquid dish neat product liquid-air partition coefficient. Format: physicochemical. Conditions: Table 1 materials; each letter of the code is one property class (vapor pressure, ClogP, color instability, odor detection threshold, PMC headspace ratio, PMC leakage, liquid dish liquid-air partition coefficient).
Turning to `Cc1ccc(CC(C)C=O)cc1` (centres unmarked) [Material 742], the “Comment Code” value is on record as “ACHJK”.
The same measure, in the same setting: under `CC(C)=CCCC1=CCC(C#N)CC1` (centres unmarked) [Material 660] stands “DEFHJK”; under `CC(C)=CCC/C(C)=C/CC/C(C)=C/CO` [Material 1065], “DEFHJK”.
In the case of `CCCCCC(=O)Oc1ccc(C)cc1` [Material 939], the “Comment Code” value was “DEFHJK”.
On to `CC1=CC2C(CC1)C(C)=CCC2C(C)C` (centres unmarked) [Material 725], for which the “Comment Code” value is listed as “DEFHJKL”.
For the compound `C=CCCCCCCCCC=O` [Material 871], the “Comment Code” value is on record as “ADHJK”.
Still for that read-out and setting: the same measure for `CC(C)=CCC/C(C)=C/CO` [Material 1082]: “BCHIK”; for `CC1=CCCC2(C)CCC(C(C)(C)O)CC12` (centres unmarked) [Material 775]: “DEFHJK”.
In the case of `COc1cc(C=O)ccc1OC(=O)C(C)C` [Material 1111], the “Comment Code” value is reported as “CHJ”.
Same read-out and setting: under `CC1=CCC(/C=C/C(C)(C)C(C)O)C1(C)C` (centres unmarked) [Material 985] stands “DHJK”; under `CC1=CCC2(C)CCCC(C)(C)C23CC13` (centres unmarked) [Material 1060], “BDEFGJKL”; under `CC(C)=CCCC1(C)C2CC3C(C2)C31C` (centres unmarked) [Material 693], “ADEFHJKL”.
`Cc1ncsc1CCO` [Material 1042]: the “Comment Code” value was “CGIKL”.
Same read-out and setting: the same measure for `CCC(C)CCC(C)(CC)OC(C)=O` (centres unmarked) [Material 821]: “ADEFHIJKL”.
`CC12CCC(C(=O)C1=O)C2(C)C` (centres unmarked) [Material 587]: the “Comment Code” value is listed as “ACEFGIJK”.
Same read-out and setting: the same measure for `CC1CCC2C(C2(C)C)C12COC(C)(C)OC2` (centres unmarked) [Material 1036]: “BCEFHJK”.
As to `CC(=O)OC1C2(C)CCC(C2)C1(C)C` (centres unmarked) [Material 878], the “Comment Code” value was “ADEFHIJKL”.
Take `CCC=CCCC=CC=O` [Material 864]: the “Comment Code” value is on record as “ACHKL”.
As to `CC1=CCCC2(C)OC2CCC(C)=CCC1` (centres unmarked) [Material 568], the “Comment Code” value is on record as “DFHJK”.
On the same count and under the same terms, the same measure for `CC1=CCOC(c2ccccc2)C1` (centres unmarked) [Material 1016]: “BCEFGJK”; for `CCCCCCCCCCCCCCCCCC(=O)OCCCC` [Material 594]: “DEFHJ”.
On the same count and under the same terms, the same measure for `CC1=CCC(O)(C(C)C)CC1` (centres unmarked) [Material 800]: “BCHIJK”.
The same measure, in the same setting: the same measure for `OCCOc1ccccc1` [Material 834]: “BCEFGIK”; for `C=C[C@](C)(O)CC[C@@H]1[C@@]2(C)CCCC(C)(C)[C@@H]2CC[C@@]1(C)O` [Material 1028]: “DEFHJ”; for `C/C=C/c1cc(OC)c(OC)cc1OC` [Material 924]: “BCFGJK”.
As for `CCCCCCCC1CCCO1` (centres unmarked) [Material 852], the “Comment Code” value was “BDEFHJKL”.
On the same count and under the same terms, the same measure for `CC1CC(C)(C)OC(Cc2ccccc2)O1` (centres unmarked) [Material 1003]: “DEFHJK”.
On the same count and under the same terms, under `COc1c2ccoc2cc2oc(=O)ccc12` [Material 638] stands “CGJ”.
Take `C/C=C1/CC2CC1C1CCCOC21` (centres unmarked) [Material 1008]: the “Comment Code” value was “BCEFHJKL”.
Turning to `C=C1CCCC(C)(C)C1C(=O)OC` (centres unmarked) [Material 1010], the “Comment Code” value is “ADHIJKL”.
Turning to `CC1=CC(=O)CC(C)C12CCC(=C(C)C)C2` (centres unmarked) [Material 610], the “Comment Code” value was “DHJK”.
Consider `N#CC(=C1CCCCC1)c1ccccc1` [Material 945], for which the “Comment Code” value is “DFHJK”.
`CCC(=O)C=CC1C(C)=CCCC1(C)C` (centres unmarked) [Material 700]: the “Comment Code” value is reported as “BDHJK”.
Take `CC(C)=CCCC1=CCC(C)(C=O)CC1` (centres unmarked) [Material 988]: the “Comment Code” value is given as “DFHJK”.
Turning to `CCCCCCC=CC=O` [Material 837], the “Comment Code” value is reported as “ADHKL”.
The same measure, in the same setting: the same measure for `COC(=O)c1ccccc1N=CCC(C)CCCC(C)(C)O` (centres unmarked) [Material 661]: “DEFHJ”; for `CCCCCCC/C=C\CCC=O` [Material 1045]: “BDFHJK”; for `CC(=CCC1CC=C(C)C1(C)C)CO` (centres unmarked) [Material 1025]: “CHJK”.
On the same count and under the same terms, the same measure for `CCOCOC1CCCCCCCCCCC1` [Material 607]: “DEFHJK”; for `CCCCCC=CC=CC(=O)OCC` [Material 951]: “BDEFHJK”; for `C=C1C=CC(C(C)CCC=C(C)C)CC1` (centres unmarked) [Material 614]: “DEFHJK”.
As for `CC(C)(O)Cc1ccccc1` [Material 649], the “Comment Code” value was “BCEFGIK”.
Still for that read-out and setting: under `C=C(C)C1CC=C(COC(C)=O)CC1` (centres unmarked) [Material 947] stands “DFHJK”; under `CCCCCCCCO` [Material 580], “ACEFGIKL”.
As for `CCCCOC(=O)C(C)OC(=O)CCC` (centres unmarked) [Material 595], the “Comment Code” value is reported as “CEFGJK”.
`CC(=O)C=CC1C(C)=CCC(C)C1(C)C` (centres unmarked) [Material 704]: the “Comment Code” value is “BDHJK”.
Same read-out and setting: the same measure for `C=C1C2CCC(C)(OCC)C1CCC2(C)C` (centres unmarked) [Material 606]: “BDEFHJK”.
On to `COc1cc(C)ccc1C(C)C` [Material 1062], for which the “Comment Code” value was “ADHIJKL”.
The same measure, in the same setting: the same measure for `CCCCCC/C=C/C=O` [Material 1070]: “ADHKL”; for `Cc1ccc(OC(=O)Cc2ccccc2)cc1` [Material 998]: “DFHJ”.
Still for that read-out and setting: the same measure for `CCC=C1OC(=O)c2ccccc21` [Material 805]: “CEFHK”; for `CC(CC=O)CCc1ccccc1` (centres unmarked) [Material 807]: “BDFHJK”.
Still for that read-out and setting: the same measure for `CC1=C2CCC(C)C2CC(C(C)(C)O)CC1` (centres unmarked) [Material 920]: “DEFHJK”.
As for `CC(C)=CCCC1=CCC(C)(C=O)CC1` (centres unmarked) [Material 727], the “Comment Code” value is “DFHJK”.

The same data set, now with this note: cell strings several class symbols together; each letter is one property class of L1.
Turning to `CCCCCCC=O` [Material 284], the “Comment Code” value was “ACHIKL”.
Regarding `CCOc1cc(COC)ccc1O` [Material 115], the “Comment Code” value is recorded as “CFGK”.
As to `CC(O)CCC1CCCCC1` (centres unmarked) [Material 699], the “Comment Code” value is listed as “BDEFHIK”.
Same read-out and setting: under `CC1C2CC(CC2C2CCC(O)CC2)C1(C)C` (centres unmarked) [Material 230] stands “DEFHJK”; under `CC(C)CCCC(C)CC=O` (centres unmarked) [Material 1051], “ADGIJKL”.
`CC1=CCC2(C)CCCC(C)(C)C23CC13` (centres unmarked) [Material 1060]: the “Comment Code” value was “BDEFGJKL”.
On the same count and under the same terms, under `Cc1ccnc2ccccc12` [Material 166] stands “BCEFHIKL”; under `CC1=C(C/C=C(\C)C=O)C(C)(C)CCC1` [Material 602], “DHJK”.
For the compound `C=CC1(C)Cc2occ(C)c2CC1C(=C)C` (centres unmarked) [Material 488], the “Comment Code” value is recorded as “DHJK”.
Same read-out and setting: under `Cc1cc(O)cc(C)c1Cl` [Material 557] stands “BCHIJK”; under `CC=Cc1ccc(OCC)c(O)c1` [Material 1112], “CEFHK”; under `C/C=C\c1ccc(O)c(OC)c1` [Material 528], “CEFHIK”.
Take `CCCc1ccc(O)c(OC)c1` [Material 440]: the “Comment Code” value is given as “CEFHIJK”.
Turning to `CC1COC(C)(c2ccc3c(c2)C(C)(C)CCC3(C)C)O1` (centres unmarked) [Material 2], the “Comment Code” value is on record as “DFHJ”.
For the compound `OCc1ccccc1` [Material 652], the “Comment Code” value is reported as “ACEFGIKL”.
For the compound `C/C=C/c1ccc(O)c(OC)c1` [Material 1084], the “Comment Code” value is on record as “CEFHIK”.
For the compound `CCC(=O)OC1CC2C3C=CCC3C1C2(C)C` (centres unmarked) [Material 343], the “Comment Code” value is given as “DEFHJK”.
Same read-out and setting: the same measure for `CCC(=O)N(CC)c1cccc(C)c1` [Material 755]: “CEFHJK”; for `CC(C)=CCCC(C)CC=O` (centres unmarked) [Material 518]: “ACHIJKL”.
Still for that read-out and setting: under `C=C[C@](C)(O)CC[C@@H]1[C@@]2(C)CCCC(C)(C)[C@@H]2CC[C@@]1(C)O` [Material 1028] stands “DEFHJ”.
Still for that read-out and setting: the same measure for `CC(=O)C(C)O` (centres unmarked) [Material 760]: “ACEFGIKL”; for `CC1(C)C2=C(CO)CCC(C)(C)C23CCC1C3` (centres unmarked) [Material 248]: “DEFHJK; also recorded: BDEFHJK”; for `O=C1CCC2(CCCCC2)O1` [Material 1039]: “BCGIKL”.
As for `CC=Cc1ccc(OCc2ccccc2)c(OC)c1` [Material 212], the “Comment Code” value is reported as “DFHJ”.
Still for that read-out and setting: under `CCCCCCCC(=O)OC/C=C(\C)CCC=C(C)C` [Material 308] stands “DEFHJ”; under `CC1=CC[C@H]2C[C@@H]1C2(C)C` [Material 903], “ADEFGIJKL”.
The same measure, in the same setting: the same measure for `CC(C)=CCCC(C)CC#N` (centres unmarked) [Material 509]: “BCEFGIKL”.
Consider `C=C(C)CC(C)OC(=O)C(C)C` (centres unmarked) [Material 201], for which the “Comment Code” value is recorded as “ADEFGIJKL”.
The same measure, in the same setting: the same measure for `CC1CCC(=O)C1=O` (centres unmarked) [Material 810]: “ACEFGIKL”; for `COC(=O)C=C(C)CCC=C(C)C` [Material 111]: “BCHJKL”; for `C/C=C\C(=O)/C(C)=C(/C)C(C)C` [Material 986]: “ADHIJKL”.
In the case of `CC1=CCC(C(C)C)=CC1` [Material 319], the “Comment Code” value is recorded as “ADEFGIJKL”.
The same measure, in the same setting: the same measure for `CC(=O)OCCc1ccccc1` [Material 832]: “BCEFHK”; for `CC(C)(C)C1CCCCC1O` (centres unmarked) [Material 1122]: “ACGIJKL”; for `CC1CCC2CC1C2(C)C` (centres unmarked) [Material 525]: “ADEFGIJKL”.
On the same count and under the same terms, under `Cc1csc(C(C)C)n1` [Material 848] stands “ACHIJKL”.
Still for that read-out and setting: the same measure for `CC1COCc2cc3c(cc21)C(C)(C)C(C)C3(C)C` (centres unmarked) [Material 335]: “DEFHJK”.
Turning to `N#C/C=C/c1ccccc1` [Material 556], the “Comment Code” value is “ACEFGIK”.
For the compound `CC(C)C1CCC(CO)CC1` (centres unmarked) [Material 133], the “Comment Code” value is “BDEFHIJK”.
With `CC(C)=CCCC(C)CC=O` (centres unmarked) [Material 891], the “Comment Code” value was “ACHIJKL”.
The same measure, in the same setting: under `C=CCOCCc1ccccc1` [Material 744] stands “ACEFHK”; under `CCC(C)C(=O)N(C)c1ccccc1` (centres unmarked) [Material 314], “BCEFHJK”; under `COc1ccc(C(C)=O)cc1` [Material 761], “BCEFHIK”.

Staying with this data set, now noted: letter codes A-L: vapor pressure, ClogP, probability of ingredient color instability, odor detection threshold, PMC headspace response ratio, PMC leakage, liquid dish liquid-air partition coefficient; Table 1 materials with at least one MORV from 1 to 5.
For `CC1(C)C2CCC3(C2)C1C1(CCC3(C)C)OCCO1` (centres unmarked) [Material 1145], the “Comment Code” value is “DEFHJK”.
